Patent US10681909B2, “Herbicidal triazoles” (FMC Corporation, priority 2014, dated 2020)

Tests used:
corn = assay: Test A postemergence; type: in vivo, Zea mays; details: Zea mays, post-emergence, 240 h, 0 to 100 scale (0 no effect, 100 complete control), approx. 10 d
Outline: (§1)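 Herbicidal response was scored on plants treated pre- or postemergence with surfactant-containing, non-phytotoxic solvent formulations. Preemergence meant a directed spray onto soil (loam–sand) holding sown seed; postemergence plants were at one to two leaves.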

pigweed [1] = assay: Test A postemergence; type: in vivo, Amaranthus retroflexus; details: Amaranthus retroflexus, post-emergence, 240 h, 0 to 100 scale (0 no effect, 100 complete control), approx. 10 d, read-out: Plant response rating, Pigweed
Outline: as §1

velvetleaf = assay: Test C postemergence; type: in vivo, Abutilon theophrasti
Outline: (§2)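 Pre: seeded into loam/sand, sprayed same time. Post: plants in peat moss–vermiculite mix with starter nutrients and dolomitic limestone, treated at 1- to 4-leaf stage (2 to 18 cm). Formulation: non-phytotoxic solvent blend plus surfactant.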

wheat (winter wheat) = assay: Test C postemergence; type: in vivo, Triticum aestivum
Outline: as §2

barnyardgrass [2] = assay: Test A postemergence; type: in vivo, Echinochloa crus-galli; details: Echinochloa crus-galli, post-emergence, 240 h, 0 to 100 scale (0 no effect, 100 complete control), approx. 10 d, read-out: Plant response rating, Barnyardgrass
Outline: as §1

ragweed = assay: Test C postemergence; type: in vivo, Ambrosia elatior
Outline: as §2

morningglory = assay: Test C postemergence; type: in vivo, Ipomoea coccinea
Outline: as §2

lambsquarters = assay: Test C postemergence; type: in vivo, Chenopodium album
Outline: as §2

foxtail, giant [3] = assay: Test C postemergence; type: in vivo, Setaria faberii
Outline: as §2

oilseed rape = assay: Test C postemergence; type: in vivo, Brassica napus
Outline: as §2

oat, wild = assay: Test C postemergence; type: in vivo, Avena fatua
Outline: as §2

foxtail, giant [4] = assay: Test A preemergence; type: in vivo, Setaria faberii; details: Setaria faberi, pre-emergence, 240 h, 0 to 100 scale (0 no effect, 100 complete control), read-out: Plant response rating, Foxtail, Giant
Outline: as §1

barnyardgrass [5] = assay: Test B flooded paddy test; type: in vivo, Echinochloa crus-galli; details: Echinochloa crus-galli, 360 h, 125 g ai/ha, applied to paddy water at 2-leaf stage, visual rating after 13 to 15 d, scale 0 (no effect) to 100 (complete control), read-out: Plant response rating, Barnyardgrass, Flood
Outline: (§3)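 Pots were flooded to 3 cm above the soil at treatment, and compounds were applied directly into the paddy water. That depth was held throughout. After 13 to 15 d in a greenhouse, plants were rated visually against untreated controls.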

nutsedge, yellow = assay: Test C postemergence; type: in vivo, Cyperus esculentus
Outline: as §2

johnsongrass = assay: Test C postemergence; type: in vivo, Sorghum halepense
Outline: as §2

chickweed = assay: Test C postemergence; type: in vivo, Stellaria media
Outline: as §2

rice = assay: Test B flooded paddy test; type: in vivo, Oryza sativa; details: Oryza sativa, 360 h, 125 g ai/ha, applied to paddy water at 2-leaf stage, visual rating after 13 to 15 d, scale 0 (no effect) to 100 (complete control), read-out: Plant response rating, Rice, Flood
Outline: as §3

pigweed [6] = assay: Test C postemergence; type: in vivo, Amaranthus retroflexus
Outline: as §2

kochia = assay: Test C postemergence; type: in vivo, Kochia scoparia
Outline: as §2

crabgrass, large = assay: Test C postemergence; type: in vivo, Digitaria sanguinalis
Outline: as §2

CCOc1nc(-c2ccc(F)cc2)nn1Cc1ccnc(C(F)(F)F)c1 [Compound 8, 4-[[5-ethoxy-3-(4-fluorophenyl)-1H-1,2,4-triazol-1-yl]methyl]-2-(trifluoromethyl)pyridine]
Corn plant response rating (crop injury, 0 = no effect, 100 = complete kill) at 125 g/ha (corn; 125 g ai/ha): 50%
Corn plant response rating (crop injury, 0 = no effect, 100 = complete kill) at 500 g/ha (corn; 500 g ai/ha): 90%
pest or weed control at 125 g/ha (pigweed [1]; 125 g ai/ha): 100%
pest or weed control at 500 g/ha (pigweed [1]; 500 g ai/ha): 100%
Plant response rating (scale of 0 to 100 where 0 is no effect and 100 is complete control) (velvetleaf; 31 g ai/ha): 50
Plant response rating (scale of 0 to 100 where 0 is no effect and 100 is complete control) (velvetleaf; 62 g ai/ha): 70
Plant response rating (scale of 0 to 100 where 0 is no effect and 100 is complete control) (velvetleaf; 125 g ai/ha): 90
Plant response rating (scale of 0 to 100 where 0 is no effect and 100 is complete control) (velvetleaf; 250 g ai/ha): 90
Plant response rating (scale of 0 to 100 where 0 is no effect and 100 is complete control) (wheat (winter wheat); 31 g ai/ha): 30
Plant response rating (scale of 0 to 100 where 0 is no effect and 100 is complete control) (wheat (winter wheat); 62 g ai/ha): 35
Plant response rating (scale of 0 to 100 where 0 is no effect and 100 is complete control) (wheat (winter wheat); 125 g ai/ha): 30
Plant response rating (scale of 0 to 100 where 0 is no effect and 100 is complete control) (wheat (winter wheat); 250 g ai/ha): 40
pest or weed control at 125 g/ha (barnyardgrass [2]; 125 g ai/ha): 100%
pest or weed control at 500 g/ha (barnyardgrass [2]; 500 g ai/ha): 100%
Plant response rating (scale of 0 to 100 where 0 is no effect and 100 is complete control) (ragweed; 31 g ai/ha): 45
Plant response rating (scale of 0 to 100 where 0 is no effect and 100 is complete control) (ragweed; 62 g ai/ha): 50
Plant response rating (scale of 0 to 100 where 0 is no effect and 100 is complete control) (ragweed; 125 g ai/ha): 70
Plant response rating (scale of 0 to 100 where 0 is no effect and 100 is complete control) (ragweed; 250 g ai/ha): 80
Plant response rating (scale of 0 to 100 where 0 is no effect and 100 is complete control) (morningglory; 31 g ai/ha): 85
Plant response rating (scale of 0 to 100 where 0 is no effect and 100 is complete control) (morningglory; 62 g ai/ha): 98
Plant response rating (scale of 0 to 100 where 0 is no effect and 100 is complete control) (morningglory; 125 g ai/ha): 80
Plant response rating (scale of 0 to 100 where 0 is no effect and 100 is complete control) (morningglory; 250 g ai/ha): 100
Plant response rating (scale of 0 to 100 where 0 is no effect and 100 is complete control) (lambsquarters; 31 g ai/ha): 95
Plant response rating (scale of 0 to 100 where 0 is no effect and 100 is complete control) (lambsquarters; 62 g ai/ha): 98
Plant response rating (scale of 0 to 100 where 0 is no effect and 100 is complete control) (lambsquarters; 125 g ai/ha): 95
Plant response rating (scale of 0 to 100 where 0 is no effect and 100 is complete control) (lambsquarters; 250 g ai/ha): 98
Plant response rating (scale of 0 to 100 where 0 is no effect and 100 is complete control) (foxtail, giant [3]; 31 g ai/ha): 20
Plant response rating (scale of 0 to 100 where 0 is no effect and 100 is complete control) (foxtail, giant [3]; 62 g ai/ha): 40
Plant response rating (scale of 0 to 100 where 0 is no effect and 100 is complete control) (foxtail, giant [3]; 125 g ai/ha): 55
Plant response rating (scale of 0 to 100 where 0 is no effect and 100 is complete control) (foxtail, giant [3]; 250 g ai/ha): 85
Plant response rating (scale of 0 to 100 where 0 is no effect and 100 is complete control) (oilseed rape; Oilsee Rape, 250 g ai/ha): 95
Plant response rating (scale of 0 to 100 where 0 is no effect and 100 is complete control) (oilseed rape; Oilseed Rape, 31 g ai/ha): 90
Plant response rating (scale of 0 to 100 where 0 is no effect and 100 is complete control) (oilseed rape; Oilseed Rape, 62 g ai/ha): 95
Plant response rating (scale of 0 to 100 where 0 is no effect and 100 is complete control) (oilseed rape; Oilseed Rape, 125 g ai/ha): 95
Plant response rating (scale of 0 to 100 where 0 is no effect and 100 is complete control) (oat, wild; 31 g ai/ha): 45
Plant response rating (scale of 0 to 100 where 0 is no effect and 100 is complete control) (oat, wild; 62 g ai/ha): 50
Plant response rating (scale of 0 to 100 where 0 is no effect and 100 is complete control) (oat, wild; 125 g ai/ha): 35
Plant response rating (scale of 0 to 100 where 0 is no effect and 100 is complete control) (oat, wild; 250 g ai/ha): 45
pest or weed control at 125 g/ha (foxtail, giant [4]; 125 g ai/ha): 100%
pest or weed control at 500 g/ha (foxtail, giant [4]; 500 g ai/ha, approx. 10 d): 100%
pest or weed control at 125 g/ha (barnyardgrass [5]): 50%
Plant response rating (scale of 0 to 100 where 0 is no effect and 100 is complete control) (nutsedge, yellow; 31 g ai/ha): 5
Plant response rating (scale of 0 to 100 where 0 is no effect and 100 is complete control) (nutsedge, yellow; 62 g ai/ha): 10
Plant response rating (scale of 0 to 100 where 0 is no effect and 100 is complete control) (nutsedge, yellow; 125 g ai/ha): 10
Plant response rating (scale of 0 to 100 where 0 is no effect and 100 is complete control) (nutsedge, yellow; 250 g ai/ha): 10
Plant response rating (scale of 0 to 100 where 0 is no effect and 100 is complete control) (johnsongrass; 31 g ai/ha): 5
Plant response rating (scale of 0 to 100 where 0 is no effect and 100 is complete control) (johnsongrass; 62 g ai/ha): 35
Plant response rating (scale of 0 to 100 where 0 is no effect and 100 is complete control) (johnsongrass; 125 g ai/ha): 30
Plant response rating (scale of 0 to 100 where 0 is no effect and 100 is complete control) (johnsongrass; 250 g ai/ha): 40
Plant response rating (scale of 0 to 100 where 0 is no effect and 100 is complete control) (chickweed; 31 g ai/ha): 85
Plant response rating (scale of 0 to 100 where 0 is no effect and 100 is complete control) (chickweed; 62 g ai/ha): 98
Plant response rating (scale of 0 to 100 where 0 is no effect and 100 is complete control) (chickweed; 125 g ai/ha): 98
Plant response rating (scale of 0 to 100 where 0 is no effect and 100 is complete control) (chickweed; 250 g ai/ha): 98
plant injury at 125 g/ha (rice): 50%
Plant response rating (scale of 0 to 100 where 0 is no effect and 100 is complete control) (pigweed [6]; 31 g ai/ha): 95
Plant response rating (scale of 0 to 100 where 0 is no effect and 100 is complete control) (pigweed [6]; 62 g ai/ha): 95
Plant response rating (scale of 0 to 100 where 0 is no effect and 100 is complete control) (pigweed [6]; 125 g ai/ha): 98
Plant response rating (scale of 0 to 100 where 0 is no effect and 100 is complete control) (pigweed [6]; 250 g ai/ha): 98
Plant response rating (scale of 0 to 100 where 0 is no effect and 100 is complete control) (kochia; 31 g ai/ha): 95
Plant response rating (scale of 0 to 100 where 0 is no effect and 100 is complete control) (kochia; 62 g ai/ha): 95
Plant response rating (scale of 0 to 100 where 0 is no effect and 100 is complete control) (kochia; 125 g ai/ha): 95
Plant response rating (scale of 0 to 100 where 0 is no effect and 100 is complete control) (kochia; 250 g ai/ha): 95
Plant response rating (scale of 0 to 100 where 0 is no effect and 100 is complete control) (crabgrass, large; 31 g ai/ha): 20
Plant response rating (scale of 0 to 100 where 0 is no effect and 100 is complete control) (crabgrass, large; 62 g ai/ha): 35
Plant response rating (scale of 0 to 100 where 0 is no effect and 100 is complete control) (crabgrass, large; 125 g ai/ha): 70
Plant response rating (scale of 0 to 100 where 0 is no effect and 100 is complete control) (crabgrass, large; 250 g ai/ha): 85
